Tests used:
Alternaria brassicae = test: In vivo preventive test on Alternaria brassicae (leaf spot on radish or cabbage); conditions: 144 h, 500 ppm of active ingredient, preventive spray on young radish or cabbage plants, evaluated 6 days after inoculation, read-out: efficacy
Alternaria alternata = Alternaria alternata in vitro cell test; type: cell-based; conditions: 120 h, 20 ppm of active ingredient, 5 days incubation, liquid culture, spectrometric measurement of mycelium growth, read-out: efficacy (inhibition of fungal growth)
Summary of the method: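 Spore suspension of A. alternata in glucose/mycological peptone/yeast extract liquid medium, with compounds added from DMSO solutions at a range of concentrations. After 5 days, mycelium growth was measured spectrometrically. Inhibition was expressed relative to absorbance of fungicide-free control wells.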

Pyricularia oryzae = test: microbe, parasite or virus in culture; type: cell-based; conditions: 120 h, read-out: efficacy (inhibition of fungal growth)
[1] = system: Colletotrichum lindemuthianum; test: Colletotrichum lindemuthianum in vitro cell test; type: cell-based; conditions: 144 h, 20 ppm of active ingredient, 6 days incubation, liquid culture, spectrometric measurement of mycelium growth, read-out: efficacy (inhibition of fungal growth)
Summary of the method: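 C. lindemuthianum spores were incubated with DMSO-solubilized compounds in liquid glucose-peptone-yeast extract medium, scoring inhibition of germination and mycelial growth. Mycelial growth was measured spectrometrically after 6 days. Inhibition was calculated from absorbance relative to compound-free control wells.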

Botrytis cinerea = Botrytis cinerea in vitro cell test; type: cell-based; conditions: 144 h, 20 ppm of active ingredient, 6 days incubation, liquid culture, spectrometric measurement of mycelium growth, read-out: efficacy (inhibition of fungal growth)
Summary of the method: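 B. cinerea spore suspension grown in defined liquid mineral/sucrose medium with DMSO-dissolved compounds for 6 days. Mycelial growth was measured by absorbance, and inhibition was derived relative to fungicide-free control wells.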

[2] = Measurement of Log P values by HPLC on reversed phase columns (EEC directive 79/831 Annex V.A8); type: physicochemical; conditions: LogP
Summary of the method: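 Reversed-phase HPLC per EEC directive 79/831 Annex V.A8 with UV detection, 10→95% acetonitrile linear gradient; eluent either 0.1% formic acid (acidic), 0.001 molar ammonium acetate (neutral) or 0.1% phosphoric acid (acidic). Calibrated with C3–C16 straight-chain alkan-2-ones by linear interpolation of retention times; multiple values joined by "+".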

Septoria tritici = Septoria tritici in vitro cell test; type: cell-based; conditions: Zymoseptoria tritici, 168 h; 20 ppm of active ingredient; 7 days incubation; liquid culture, spectrometric measurement of mycelium growth; read-out: efficacy (inhibition of fungal growth)
Summary of the method: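 Liquid culture of S. tritici spore suspension in defined mineral/sucrose medium with compounds added from DMSO solutions; measures inhibition of spore germination and mycelial growth. Growth inhibition derived from absorbance relative to untreated control wells.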

SMILES	pest or weed control at 500 ppm (Alternaria brassicae)	inhibition at 20 ppm (Alternaria alternata)	inhibition at 20 ppm (Pyricularia oryzae)	inhibition at 20 ppm [1]	inhibition at 20 ppm (Botrytis cinerea)	chromatographic logP [2]	inhibition at 20 ppm (Septoria tritici)
Cc1cccc(Oc2cnc(C)nc2C2=NOC[C@@H](Cc3ccc(C)cc3C)N2)c1 (racemic) [Compound I-004]	90 to 100%	90 to 100%	90 to 100%	90 to 100%	90 to 100%	3.95	90 to 100%
Cc1ccc(C[C@@H]2CON=C(c3nc(C)ncc3Oc3cccc(Cl)c3)N2)c(C)c1 (racemic) [Compound I-023]	90 to 100%	90 to 100%	90 to 100%	90 to 100%	90 to 100%	4.15	80 to 89%
C#Cc1cccc(Oc2cnc(C)nc2C2=NOC[C@@H](Cc3ccc(C)cc3C)N2)c1 (racemic) [Compound I-025]	90 to 100%	90 to 100%	90 to 100%	90 to 100%	90 to 100%	3.85	90 to 100%
Cc1ncc(Oc2cccc(C(F)(F)F)c2)c(C2=NOCC(Cc3ccc(Br)cc3C)N2)n1 (racemic) [Compound I-021, (5RS)-5-[(4-bromo-2-methyl-phenyl)methyl]-3-[2-methyl-5-[3-(trifluoro-methyl)phenoxy]pyrimidin-4-yl]-5,6-dihydro-4H-1,2,4-oxadiazine]	90 to 100%	90 to 100%	90 to 100%	90 to 100%	90 to 100%	4.48	90 to 100%
Cc1ccc(C[C@@H]2CON=C(c3nc(C)ncc3Oc3cccc(Br)c3)N2)c(C)c1 (racemic) [Compound I-009]	90 to 100%	90 to 100%	90 to 100%	90 to 100%	90 to 100%	4.44	90 to 100%
Cc1ncc(Oc2cccc(C(F)(F)F)c2)c(C2=NOCC(Cc3ccc(C4CC4)cc3C)N2)n1 (racemic) [Compound I-029, (5RS)-5-[(4-cyclopropyl-2-methyl-phenyl)methyl]-3-[2-methyl-5-[3-(trifluoromethyl)phenoxy]pyrimidin-4-yl]-5,6-dihydro-4H-1,2,4-oxadiazine]	90 to 100%	90 to 100%	90 to 100%	90 to 100%	90 to 100%	4.7	90 to 100%
Cc1ccc(C[C@@H]2CON=C(c3nc(C)ncc3Oc3cccc(C4CC4)c3F)N2)c(C)c1 (racemic) [Compound I-016]	90 to 100%	90 to 100%	90 to 100%	90 to 100%	90 to 100%	4.41	90 to 100%
COc1cccc(Oc2cnc(C)nc2C2=NOC[C@@H](Cc3ccc(C)cc3C)N2)c1 (racemic) [Compound I-032]	90 to 100%	90 to 100%	80 to 89%	90 to 100%	90 to 100%	3.66	90 to 100%
Cc1ccc(C[C@@H]2CON=C(c3nc(C)ncc3Oc3cccc(Cl)c3)N2)c(Cl)c1 (racemic) [Compound I-018]	90 to 100%	90 to 100%	90 to 100%	90 to 100%	90 to 100%	4.22	90 to 100%
Cc1ccc(C[C@@H]2CON=C(c3nc(C)ncc3Oc3cccc(Cl)c3F)N2)c(Cl)c1 (racemic) [Compound I-005]	90 to 100%	90 to 100%	80 to 89%	90 to 100%	90 to 100%	4.19	90 to 100%
Cc1ccc(CC2CON=C(c3nc(C)ncc3Oc3cccc(C(F)(F)F)c3)N2)c(C)c1 (racemic) [Compound I-002, (5RS)-5-(2,4-dimethylbenzyl)-3-{2-methyl-5-[3-(trifluoro-methyl)phenoxy]pyrimidin-4-yl}-5,6-dihydro-4H-1,2,4-oxadiazine]	90 to 100%	90 to 100%	90 to 100%	90 to 100%	90 to 100%	4.33	90 to 100%

— patent US12565489B2, “Heterocyclyl pyrimidines and triazines as novel fungicides” (Bayer Aktiengesellschaft, priority 2020, dated 2026)
